Like-named read-outs stand apart in the source and are kept apart here.
Assays:
[1] = mouse, in vivo; for CA (pooled): BChE-KO, 5XFAD-BChE-KO (pooled)
[2] = format: in vivo; conditions: 5XFAD mouse, IV, 3D SPECT

Row | SMILES | time of peak radioligand uptake in brain ([1]; 5XFAD and WT (wild-type)) | CA (pooled) ([1]; 5XFAD, WT) | t1/2 clearance ([1]; 5XFAD) | CA (asymptotic tracer concentration) ([1]; 5XFAD-BChE-KO) | t1/2 clearance ([1]; WT) | kclearance (pooled) [1] | time of peak radioligand uptake in brain ([1]; WT and BChE-KO) | time of peak radioligand uptake in brain ([1]; 5XFAD and WT) | decrease in kclearance ([1]; 5XFAD compared to WT) | increase in t1/2clearance ([1]; 5XFAD compared to WT) | t1/2 clearance [1] | distribution of the tracer in vivo (extracranial) [2] | radioligand reaching the brain [2] | ability to cross the blood-brain barrier / brain uptake ([1]; iv, 60 min)
1 | O=C(OCc1ccc(I)cc1)c1cccc(=O)[nH]1 [TRV7005, (p-Iodophenyl)methyl 6-oxo-1H-pyridine-2-carboxylate] | 2 minutes post-injection | 45.4 ± 2.4 % Cmax | 6.51 ± 1.19 min | 42.8 % Cmax | 7.21 ± 1.75 min | 0.11 ± 0.02 min⁻¹ |  |  |  |  |  |  |  | 
2 | Cn1c(C(=O)OCc2ccc(I)cc2)cccc1=O [TRV7006, (p-Iodophenyl)methyl 1-methyl-6-oxo-1H-pyridine-2-carboxylate] |  | 51.6 ± 3.4 % Cmax |  |  | 4.72 ± 0.93 min | 0.17 ± 0.03 min⁻¹ | 2 minutes post-injection |  |  |  |  |  |  | 
3 | COc1cccc(C(=O)OCc2ccc(I)cc2)n1 [TRV7019, (p-iodophenyl)methyl 6-methoxy-2-pyridinecarboxylate] |  | 56.1 ± 3.5 % Cmax | 3.22 ± 0.55 min |  | 1.77 ± 0.15 min |  |  | 1 minutes post-injection | 58% | 82% | 1.77 ± 0..15 min |  |  | 
4 | O=C(OCc1ccccc1)c1cccc(OCc2ccc(I)cc2)n1 [TRV7040, Benzyl 6-[(p-iodophenyl)methoxy]-2-pyridinecarboxylate] |  |  |  |  |  |  |  |  |  |  |  | avid uptake of TRV7040 is seen in the eye and hardarian glands | negligible radioligand reaching the brain | inability of TRV7040 to cross the BBB and reach the brain

Source: patent US20230357154A1 (priority 2019, published 2023)
